Measurements reported in patent US8349553B2, “Jasmonate based assays for identifying compounds that selectively inhibit mitochondrial bound hexokinases” (Ramot at Tel Aviv University Ltd., priority 2007, dated 2013).
Entries after “also recorded” stand apart in the source; their conditions may differ.

Key:
[1] = test system: CT26 cells transfected with pcDNA3-HKII or pcDNA3; conditions: CT26; 3.75 μM; 3 hours exposure
Description: Cell death was determined by trypan blue exclusion. […] Alternatively, cytotoxicity was determined using hemacolor staining. Upon completion of a given experiment, cells were stained and the percentage of dead (detached) cells was determined spectrophotometrically.
CT26 cells were transfected with pcDNA3-HKII or pcDNA3, using FuGene HD transfection reagent (Roche, Basel, Switzerland), according to the manufacturer's instruction followed by selection using G418.
To examine the effect of hexokinase over-expression on methyl jasmonate action, CT26 cells were transfected with plasmids, pcDNA3-HKII or pcDNA3, encoding for hexokinase II over-expression and a control plasmid, respectively (Zaid, 2005). Cells were seeded in 96-well plates and allowed to adhere. Cells were exposed to methyl jasmonate for 60 minutes prior to ATP determination (FIG. […] 9B).

[2] = Fingrut, 2002, 2005, Rotem; cited from earlier work
purified rat brain HKI = target: T1, purified rat brain HKI (Rattus norvegicus, UniProt P05708); assay: Surface plasmon resonance analysis of jasmonate-HK interactions; assay type: binding; conditions: analyte injected at varying concentrations (MJ 0.375-6 mM); 25° C.
T1 construct: from tissue; host or cells: rat brain mitochondria
Description: Rat brain HK-I was purified as following, crude brain mitochondria containing tightly bound HK-I were incubated with 1.2 mM glucose-6-phosphate and 0.5 mM K-EDTA to release the enzyme into the soluble fraction. Further purification of HK-I was achieved by affinity chromatography on Cibacron Blue-agarose (Pharmacia). The purified enzyme was concentrated and washed in 0.5 mM K-EDTA, 10 mM glucose, 1 mM dithiothreitol and 10 mM K-Hepes, pH 7.8, using an Amicon device and a 50,000 Da molecular mass cut-off membrane (Spectrum; type C). The concentrated enzyme (up to 1 mg/ml; 30-60 units/mg) was frozen in liquid nitrogen and stored at −80° C. until use (Azoulay-Zohar, 2004).
Surface plasmon resonance (SPR) is an optical biosensor technique that measures molecular binding events at a metal surface by detecting changes in the local refractive index. SPR is the surface-sensitive technique ideal for studying interactions between immobilized biomolecules (ligands) and a solution-phase analyte. The biosensor response is directly proportional to the mass of the bound analyte. The advantage of SPR for investigation of small molecular weight analytes over conventional techniques such as fluorescence or enzyme-linked immunosorbent assay is detection of an analyte being label-free and direct, without the need for labeling of analyte or multistep detection protocols (sandwich assay). […]

[3] = test system: mitochondria-bound hexokinase (mitochondrial fraction from a CT-26 tumor); assay: Hexokinase detachment assay, mitochondrial fraction of CT-26 tumor; assay type: biochemical, murine; conditions: CT-26 tumor mitochondrial fraction; 30 minutes of incubation
Description: Mitochondrial fraction was prepared by mechanical lysis and differential centrifugation. All stages were performed on ice. Cells or extracted tissues were washed with PBS and disrupted by homogenization in extraction buffer (Sucrose 250 mM, HEPES-NaOH 10 mM, pH 7.2) freshly supplemented with 0.1 mM EDTA and Protease Inhibitors cocktail (Sigma). For each gram of cells or tissue, 4 volumes of extraction buffer were applied. The homogenate volume was doubled with the extraction buffer, and tissue and cell debris as well as nuclei were pelleted by centrifugation of 1,000 g for 10 minutes. The supernatant was further spun at 13,000 g for 10 minutes twice. Endoplasmic reticulum layer was removed. The pellet, designated as the mitochondrial fraction, was suspended in the appropriate buffer, depending on the assay for which the mitochondrial fraction was prepared. Mitochondrial fractions were used immediately or stored at −196° C.
To determine the amount of hexokinase detached from the mitochondrial fraction by different agents, mitochondria were incubated with the agent of interest and pelleted by centrifugation. Activity of hexokinase in the supernatant (i.e., activity of the detached hexokinase) was determined spectrophotometrically at 340 nm. The reaction couples the ADP formation by hexokinase, consuming the ADP for pyruvate formation by pyruvate kinase, and reducing the pyruvate with NADH by lactate dehydrogenase. Briefly, mitochondria were suspended in incubation buffer (HEPES pH 7.4 20 mM, Sucrose 0.25M, Glucose 10 mM, KCl5 mM, MgCl2 10 mM; 0.2 mg/test, 100 μL/test) and incubated as described below. […]
Methyl jasmonate perturbs mitochondria directly in a PTPC-dependent manner (Rotem, 2005). In order to determine whether methyl jasmonate is able to detach hexokinase from mitochondrial fraction isolated from CT-26 tumors, the activity of hexokinase in the supernatant of mitochondrial fraction treated for different time periods was measured. […] The activity of unbound hexokinase was measured and compared to the activity of spontaneously detached hexokinase (control).

[4] = test system: mitochondrial fraction of mouse liver; assay: Mitochondrial swelling assay, mouse liver; assay type: biochemical; conditions: 1 mM
Description: (§1) Freshly isolated mitochondrial fraction was washed with extraction buffer to remove EDTA and resuspended in swelling buffer (Mannitol 220 mM, Sucrose 70 mM, Tris, pH 7.2, 150 mM, KH2PO4, pH 7.2, 0.2 mM; 0.2 mg in 100 μL) freshly supplemented with potassium succinate, pH 7.2, 5 mM. Every component was sodium-free. Optical density was monitored at the wave length of 540 nm for 2-5 minutes before the addition of the examined reagents, e.g. methyl jasmonate, and for additional 20 minutes afterwards.
(§2) In order to examine the consistency of the relationship between the ability of methyl jasmonate to detach bound hexokinase and mitochondrial damage, methyl jasmonate was tested in mouse brain in comparison to mouse liver. The comparison was performed due to known differences of mitochondrial hexokinase content between mouse brain vs. its liver. It is well established in the art that brain mitochondrial fraction is rich in bound hexokinase, while liver mitochondrial fraction is essentially devoid of it (Wilson, 1995). […] Mitochondrial fractions were incubated for either 10, 30 or 60 minutes at 37° C. The activity of unbound hexokinase was measured and compared to the activity of spontaneously (control) detached hexokinase. Consequently, the ability of methyl jasmonate to induce swelling in mitochondrial fraction isolated from mouse brain and liver was tested.

[5] = test system: mitochondrial fraction of mouse brain; assay: Mitochondrial swelling assay, mouse brain; assay type: biochemical; conditions: 1 mM
Description: as §1, §2

hexokinase = assay: Hexokinase activity, agent added directly to the coupled assay mixture; assay type: biochemical; conditions: coupled pyruvate kinase/lactate dehydrogenase assay, 340 nm

T1 sequence (P05708 whole entry): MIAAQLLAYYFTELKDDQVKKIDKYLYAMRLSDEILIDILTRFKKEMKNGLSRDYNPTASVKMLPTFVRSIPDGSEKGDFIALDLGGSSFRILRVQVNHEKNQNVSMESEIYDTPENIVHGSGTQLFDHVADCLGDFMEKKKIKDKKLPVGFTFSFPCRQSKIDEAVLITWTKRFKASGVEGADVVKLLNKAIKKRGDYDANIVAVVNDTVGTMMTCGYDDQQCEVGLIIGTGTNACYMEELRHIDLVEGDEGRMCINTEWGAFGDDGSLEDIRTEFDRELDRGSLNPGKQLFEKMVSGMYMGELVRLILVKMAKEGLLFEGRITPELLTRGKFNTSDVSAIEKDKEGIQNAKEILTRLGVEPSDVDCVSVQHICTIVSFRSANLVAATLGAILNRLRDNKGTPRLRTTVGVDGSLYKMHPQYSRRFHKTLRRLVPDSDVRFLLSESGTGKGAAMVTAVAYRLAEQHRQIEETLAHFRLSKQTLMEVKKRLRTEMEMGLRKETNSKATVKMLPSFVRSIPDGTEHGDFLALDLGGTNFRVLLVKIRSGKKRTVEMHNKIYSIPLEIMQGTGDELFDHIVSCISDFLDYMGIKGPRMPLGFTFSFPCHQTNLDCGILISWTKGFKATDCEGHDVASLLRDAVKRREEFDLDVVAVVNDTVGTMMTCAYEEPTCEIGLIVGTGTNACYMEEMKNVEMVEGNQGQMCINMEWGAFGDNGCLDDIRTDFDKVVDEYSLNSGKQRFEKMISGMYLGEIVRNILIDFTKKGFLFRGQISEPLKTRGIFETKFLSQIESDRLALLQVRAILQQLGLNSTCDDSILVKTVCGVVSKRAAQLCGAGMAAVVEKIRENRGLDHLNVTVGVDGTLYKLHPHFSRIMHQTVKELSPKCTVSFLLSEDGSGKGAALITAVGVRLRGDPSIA

Row | binding to immobilized hexokinase (SPR) (purified rat brain HKI) | Compound | cytotoxicity (hemacolor), hexokinase II over-expressing vs. control cells [1] | cytotoxicity relative to methyl jasmonate [2] | detachment of hexokinase (activity of unbound hexokinase compared to control), dose dependence [3] | mitochondrial swelling (optical density at 540 nm) [4] | mitochondrial swelling (optical density at 540 nm) [5] | influence on hexokinase activity when added directly to the assay mixture (hexokinase)
1 |  | CN[C@@H]1C[C@H]2O[C@@](C)([C@@H]1OC)n1c3ccccc3c3c4c(c5c6ccccc6n2c5c31)C(=O)NC4 [staurosporine] | similarly decreased by hexokinase II over-expression |  |  |  |  | 
2 | did not bind hexokinase at all | CC/C=C\C[C@H]1C(=O)CC[C@@H]1CC(=O)O [jasmonic acid] |  | lower cytotoxicity than methyl jasmonate | did not show considerable detachment of hexokinase from mitochondrial fraction; also recorded: less effective than methyl jasmonate at detaching hexokinase from mitochondrial fraction | not in liver | to a marginal extent | neither methyl jasmonate nor jasmonic acid added directly to the assay mixture, influence hexokinase activity
